Source: BindingDB's records for doi:10.7270/Q2RB7317 (Nmmlsc, 2009)

Each compound was assayed against Ras-related C3 botulinum toxin substrate 1 (Mus musculus, UniProt P63001) (assay: analog inhibition of wildtype Rac1 nucleotide loading – biochemical, additional analogs, multiplex bead flow cytometry, SAR follow-up (AID 2040)).

In order of falling Ki:
1. O=C1Nc2c(F)cccc2C1=C1Nc2ccccc2C1=O  3230 nM
2. O=C1Nc2ccc(Br)cc2C1=C1Nc2ccccc2C1=O  1510 nM
3. O=C1NC(=O)/C(=C2/C(=O)Nc3ccccc32)N1  250 nM
4. O=C1NC(=S)N/C1=C1\C(=O)Nc2ccccc21 [(3Z)-3-(5-oxo-2-sulfanylideneimidazolidin-4-ylidene)-1H-indol-2-one]  160 nM
